Assay results: article PMC3422668 (Journal of immunology (Baltimore, Md. : 1950), 2012)
Entries after “also recorded” stand apart in the source; their conditions may differ.

Tests used:
mAb 64-3-7 = assay type: binding, murine; conditions: SPR, BIAcore T100; graded peptide concentrations 11, 33 and 100 μM; Figure 1B
mAb 64-3-7 Fab = assay: SPR direct binding of soluble 64-3-7 Fab to peptide coupled to a CM5 chip; design: species or system murine; conditions: similarly coupled peptide surface, data not shown
[1] = target: T1, H-2L^d octamer peptide EPQAPWME, residues 46-53 (mouse); assay: crystal structure
T1 chain: EPQAPWME

[2] = target: T2, H-2L^d heptamer peptide EPQAPWM (residues 46 to 52) (Mus musculus, H-2Ld); assay: SPR
T2 chain: EPQAPWM

[3] = target: T3, H-2L^d 6-mer peptide EPQAPW (Mus musculus, H-2Ld); assay: SPR
T3 chain: EPQAPW

EPQAPW
competition for antibody binding to pL^d35-55-coupled surface (mAb 64-3-7): intermediate activity

QAPWM
competition for antibody binding to pL^d35-55-coupled surface (mAb 64-3-7): fails to block

PQAPWM
competition for antibody binding to pL^d35-55-coupled surface (mAb 64-3-7): intermediate activity; also recorded: only binds weakly

EPQAPWM
competition for antibody binding to pL^d35-55-coupled surface (mAb 64-3-7): compete effectively

RFDSDAENPRYEPRARWMEQE [pK^b35-55]
direct binding of 64-3-7 Fab to peptide-coupled biosensor surface (mAb 64-3-7 Fab): no detectable binding

SNVREIKNRWRSTVQKLK [control peptide, reference compound]
direct binding of 64-3-7 Fab to peptide-coupled biosensor surface (mAb 64-3-7 Fab): no detectable binding

B1: Fab fragment of mAb 64-3-7 (Fab, V domains shown)
VH: EVKLVESEGGLVQPGSSMKLSCTASGFTFSDYYMAWVRQVPEKGLEWVANINYDGSSTYYLDSLKGRFIISRDIAKNILYLQMSSLRCEDTATYYCARLTNGYLDVWGAGTTVTVSS
VL: DVVMTQTPLSLPVSLGDQASISCRSSQSLVHSNGNTYLHWYLQKPGQSPNLLIYKVSNRFSGVPDRFSGSGSGTDFTLKISRVEAEDLGVYFCSQSTHVPTFGGGTKLEIK
binding result [1]: binds

B2: mAb 64-3-7 (antibody, V domains shown)
VH: B1 VH
VL: B1 VL
binding result [2]: binds
binding result [3]: binds
